The values that follow come from PubChem BioAssay (NCI).

Values joined by “and” are separate entries in the source; they are usually repeats but may differ in a detail not shown here. Identical values can stand only once.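 Protocol summary: plate cells (96-well), add compound at 5 concentrations, incubate 48 h, interpolate endpoints linearly. GI50 marks 50% less growth. TGI denotes the concentration required for complete inhibition of growth.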 Some results are limits rather than exact numbers.

The first assay relates to 786-0 renal. The assay can be described thus: DTP human tumour cell line panel, 48 h.
On to `CN(c1ccc(NC(=O)Nc2c(Cl)cccc2Cl)cc1)c1ccnc(Nc2cccc(CS(C)(=O)=O)c2)n1`, for which the GI50 is 3.63 µM and the concentration for total growth inhibition (TGI) stood at 10.6 µM.

Turning to `CCCCCCCCCCCC(=O)OCCOCCOCCOCCOCCOC(=O)CCCCCCCCCCC`, the TGI was above 100 µM.

As to `COc1ccc(C=O)cc1O[Si](C)(C)C(C)(C)C`, the TGI was above 100 µM.

In turn, `O=C1COc2cc(NC(=S)Nc3ccccc3)ccc2N1` gave a TGI above 100 µM.

In the case of `CCCCCCCCn1ccc2cc(NC(=O)Cn3cc(CN4CCCCCC4)nn3)ccc21`, the GI50 was 1.68 µM and the TGI came to 3.07 µM.

For the compound `COCCOC(=O)C1=C(O)c2ccccc2S(=O)(=O)N1C`, the TGI is above 100 µM.

`CNC(=O)OCc1nc(SSC(C)(C)C)n(C)c1COC(=O)NC`: the TGI turned out to be 9.12 µM.

`CC(C)C(O)(C(C)C)C(C)C`: the TGI is above 100 µM.

`O=C(Nc1ccc(Cl)cc1)C1C(=O)C(=O)N(c2ccc(Cl)cc2)C1=O` (stereo unspecified) registered a TGI above 100 µM.

`CCC[CH2][Sn]([CH2]CCC)([O]C(=O)CN)[O]C(=O)CN`: the GI50 is 33 µM and the total growth inhibition concentration (TGI) is above 100 µM.

With `CC1(C)N=C(N)N=C(N)N1c1ccc(CCC(=O)Nc2ccc(S(=O)(=O)F)cc2)c(Cl)c1`, the GI50 is 0.697 µM and the TGI is above 100 µM.

`O=C(Nc1ccc(C(F)(F)F)cc1[N+](=O)[O-])C(=O)C1NC(=S)NC1=O` (stereo unspecified): the TGI was above 100 µM.

With `COC(=O)c1ccc2[nH]c(O)c(C(=Nc3ccc(N(C)C(=O)CN4CCN(C)CC4)cc3)c3ccc4c(c3)OCO4)c2c1`, the GI50 was 0.692 µM and the TGI is 2.14 µM.

`N[C@H](C(=O)O)[C@@H]1CC(Cl)=NO1` yielded a concentration for total growth inhibition (TGI) above 1000 µM.

Compound `Oc1ccc2ccccc2c1N=Nc1cccc2ccccc12` yielded a TGI above 100 µM.

For `COc1ccc2c(c1)NC1=C(C(=O)OC1)C2c1cc(OC)c(OC)c(OC)c1` (stereo unspecified), the 50% growth inhibitory concentration (GI50) was below 0.01 µM and the TGI was above 100 µM.

`NCCCNCCS`: the GI50 is > 100 µM and 49.5 µM; the TGI was above 100 µM.

`COC(=O)C(=O)CC(=O)CCn1[nH]c(=O)c(Cl)c(Cl)c1=O` yielded a TGI above 100 µM.

Take `Cn1c(Cl)c(/C=C2/C(=O)Nc3ccccc32)c2ccccc21`: the GI50 is 1.32 µM and the TGI is 20.5 µM.

Compound `O=C1C(=O)c2ccccc2C(O)=C1C(C1=C(O)c2ccccc2C(=O)C1=O)c1ccc(Cl)cc1` registered a TGI of 11.2 µM.

`Nc1ncnc2c1ncn2C1C=C(CO)C(O)C1O` (stereo unspecified) gave a TGI above 100 µM.

For a further assay, the system named is CAKI-1 renal. The experiment in a line: DTP human tumour cell line panel, 48 h.
Turning to `CN(c1ccc(NC(=O)Nc2c(Cl)cccc2Cl)cc1)c1ccnc(Nc2cccc(CS(C)(=O)=O)c2)n1`, the GI50 was 4.53 µM and the total growth inhibition concentration (TGI) amounted to 21 µM.

`CCCCCCCCCCCC(=O)OCCOCCOCCOCCOCCOC(=O)CCCCCCCCCCC` yielded a total growth inhibition concentration (TGI) above 100 µM.

As for `COc1ccc(C=O)cc1O[Si](C)(C)C(C)(C)C`, the TGI was above 100 µM.

In the case of `O=C1COc2cc(NC(=S)Nc3ccccc3)ccc2N1`, the concentration for total growth inhibition (TGI) is above 100 µM.

Consider `CCCCCCCCn1ccc2cc(NC(=O)Cn3cc(CN4CCCCCC4)nn3)ccc21`, for which the GI50 is 1.49 µM and the total growth inhibition concentration (TGI) is 2.89 µM.

As to `COCCOC(=O)C1=C(O)c2ccccc2S(=O)(=O)N1C`, the concentration for total growth inhibition (TGI) was above 100 µM.

Compound `CNC(=O)OCc1nc(SSC(C)(C)C)n(C)c1COC(=O)NC` came in with a TGI of 3.94 µM.

`CC(C)C(O)(C(C)C)C(C)C` yielded a total growth inhibition concentration (TGI) above 100 µM.

`O=C(Nc1ccc(Cl)cc1)C1C(=O)C(=O)N(c2ccc(Cl)cc2)C1=O` (stereo unspecified) displayed a TGI above 100 µM.

As for `CCC[CH2][Sn]([CH2]CCC)([O]C(=O)CN)[O]C(=O)CN`, the GI50 is 14.7 µM and the TGI worked out at 51.1 µM.

Regarding `CC1(C)N=C(N)N=C(N)N1c1ccc(CCC(=O)Nc2ccc(S(=O)(=O)F)cc2)c(Cl)c1`, the GI50 is 7.73 µM and the TGI was above 81.1 µM.

In turn, `O=C(Nc1ccc(C(F)(F)F)cc1[N+](=O)[O-])C(=O)C1NC(=S)NC1=O` (stereo unspecified) displayed a TGI above 100 µM.

`COC(=O)c1ccc2[nH]c(O)c(C(=Nc3ccc(N(C)C(=O)CN4CCN(C)CC4)cc3)c3ccc4c(c3)OCO4)c2c1`: the GI50 was 0.26 µM and the TGI amounted to 4.07 µM.

For the compound `N[C@H](C(=O)O)[C@@H]1CC(Cl)=NO1`, the GI50 is 23.9 µM and the TGI is 160 µM.

`Oc1ccc2ccccc2c1N=Nc1cccc2ccccc12`: the TGI is above 100 µM.

On to `COc1ccc2c(c1)NC1=C(C(=O)OC1)C2c1cc(OC)c(OC)c(OC)c1` (stereo unspecified), for which the GI50 was below 0.0127 µM and the TGI is above 100 µM.

Turning to `NCCCNCCS`, the TGI is above 100 µM.

Take `COC(=O)C(=O)CC(=O)CCn1[nH]c(=O)c(Cl)c(Cl)c1=O`: the TGI was above 100 µM.

Take `Cn1c(Cl)c(/C=C2/C(=O)Nc3ccccc32)c2ccccc21`: the GI50 was 0.603 µM and the TGI came to 17.9 µM.

Consider `O=C1C(=O)c2ccccc2C(O)=C1C(C1=C(O)c2ccccc2C(=O)C1=O)c1ccc(Cl)cc1`, for which the TGI stood at 23.8 µM.

Compound `Nc1ncnc2c1ncn2C1C=C(CO)C(O)C1O` (stereo unspecified) gave a TGI above 93.6 µM.

In a further assay the test system is COLO 205 colon. The assay can be described thus: DTP human tumour cell line panel, 48 h.
Regarding `CN(c1ccc(NC(=O)Nc2c(Cl)cccc2Cl)cc1)c1ccnc(Nc2cccc(CS(C)(=O)=O)c2)n1`, the concentration for 50% growth inhibition (GI50) is 0.16 µM and the TGI stood at 11.9 µM.

As to `CCCCCCCCCCCC(=O)OCCOCCOCCOCCOCCOC(=O)CCCCCCCCCCC`, the TGI was above 100 µM.

The compound `COc1ccc(C=O)cc1O[Si](C)(C)C(C)(C)C` came in with a TGI above 100 µM.

Compound `O=C1COc2cc(NC(=S)Nc3ccccc3)ccc2N1` yielded a TGI above 100 µM.

With `CCCCCCCCn1ccc2cc(NC(=O)Cn3cc(CN4CCCCCC4)nn3)ccc21`, the GI50 was 1.68 µM and the total growth inhibition concentration (TGI) was found to be 3.25 µM.

Consider `COCCOC(=O)C1=C(O)c2ccccc2S(=O)(=O)N1C`, for which the TGI was above 100 µM.

For `CNC(=O)OCc1nc(SSC(C)(C)C)n(C)c1COC(=O)NC`, the concentration for total growth inhibition (TGI) turned out to be 3.28 µM.

Take `CC(C)C(O)(C(C)C)C(C)C`: the TGI is above 100 µM.

`O=C(Nc1ccc(Cl)cc1)C1C(=O)C(=O)N(c2ccc(Cl)cc2)C1=O` (stereo unspecified) came in with a TGI above 100 µM.

For `CCC[CH2][Sn]([CH2]CCC)([O]C(=O)CN)[O]C(=O)CN`, the GI50 is 42.9 µM and the TGI is above 100 µM.
